Where “and” joins values, the source holds several entries; their conditions need not be identical. Equal values may be shown once.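 Test compounds were applied to cells in 96-well plates for 48 hours at 5 doses. GI50 marks 50% less growth. TGI: concentration producing complete growth inhibition.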
Experiments:
Assay in all cases: DTP human tumour cell line panel, 48 h
[1] = tested on: HL-60(TB) leukemia
[2] = tested on: 786-0 renal
[3] = tested on: M14 melanoma
[4] = tested on: LOX IMVI melanoma
[5] = tested on: KM12 colon
[6] = tested on: U251 CNS
[7] = tested on: UACC-62 melanoma
[8] = tested on: COLO 205 colon

| SMILES | TGI [1] | TGI [2] | TGI [3] | TGI [4] | TGI [5] | TGI [6] | TGI [7] | TGI [8] | GI50 [2] | GI50 [3] | GI50 [4] | GI50 [5] | GI50 [7] | GI50 [1] | GI50 [6] | GI50 [8] |
| --- | --- | --- | --- | --- | --- | --- | --- | --- | --- | --- | --- | --- | --- | --- | --- | --- |
| COc1cccc(/C=C/C(=O)c2sc(C(N)=S)nc2C)c1O | > 100 µM | > 100 µM | > 100 µM | 56.7 µM | > 100 µM | > 100 µM | > 100 µM | > 100 µM | – | – | – | – | – | – | – | – |
| Cc1ccc(S(=O)(=O)N2CCN(C=S)CC2)cc1 | > 100 µM | > 100 µM | > 100 µM | > 100 µM | > 100 µM | > 100 µM | > 100 µM | > 100 µM | – | – | – | – | – | – | – | – |
| CN(C)CCC(CCN(C)C)=NO | > 100 µM | > 100 µM | > 100 µM | – | > 100 µM | > 100 µM | > 100 µM | > 100 µM | – | – | – | – | – | – | – | – |
| CC(=O)O[C@H]1CCN2C(=O)C=CC(OCc3ccccc3)C12 (stereo partly specified) | > 100 µM | > 100 µM | > 100 µM | > 100 µM | > 100 µM | > 100 µM | > 100 µM | > 100 µM | – | – | – | – | – | – | – | – |
| CCOC(=O)C(CCC(N)=O)(CCC(=O)OC)C(=O)OCC | > 100 µM | > 100 µM | > 100 µM | > 100 µM | > 100 µM | > 100 µM | > 100 µM | > 100 µM | – | – | – | – | – | – | – | – |
| CCOc1ccc(/C=C/c2cc(OC)c(OC)c(OC)c2)cc1 | 1.46 µM | 37.4 µM | 5.29 µM | > 100 µM | > 41.6 µM | 13.2 µM | > 100 µM | 2.5 µM | – | – | – | – | – | – | – | – |
| O=C1C(=C([O-])c2ccccc2)C(=O)c2ccccc21.O=C1C(=C([O-])c2ccccc2)C(=O)c2ccccc21.[Mn+2] | – | > 100 µM | > 100 µM | > 100 µM | > 100 µM | – | > 100 µM | – | > 100 µM | 70.4 µM | > 100 µM | 72.9 µM | 5.48 µM | – | – | – |
| OCC[N+]12CCCN1CCC2 | > 100 µM | > 100 µM | > 100 µM | > 100 µM | > 100 µM | > 100 µM | > 100 µM | > 100 µM | – | – | – | – | – | – | – | – |
| c1ccncc1 | > 100 µM | > 100 µM | > 100 µM | > 100 µM | > 100 µM | > 100 µM | > 100 µM | > 100 µM | – | – | – | – | – | – | – | – |
| O=[N+]([O-])c1ccc(C(Cl)C(Cl)c2ccc(C(Cl)C(Cl)c3ccc([N+](=O)[O-])cc3[N+](=O)[O-])cc2)c([N+](=O)[O-])c1 (stereo unspecified) | – | 5.62 µM and 1.09 µM | 1.77 µM and 0.681 µM | 5.96 µM and 1.72 µM | 0.812 µM | 3.03 µM | 2.37 µM and 0.623 µM | 1.99 µM | 0.321 µM | 0.243 µM | 0.403 µM | – | 0.247 µM | 0.132 µM | – | – |
| CC1=NN(C(=O)Nc2ccc(Cl)cc2)C(=O)C2CCC(=O)N12 (stereo unspecified) | > 100 µM | > 100 µM | > 100 µM | > 100 µM | > 100 µM | > 100 µM | > 100 µM | > 100 µM | – | – | – | – | – | – | – | – |
| Cc1ccc(/C=C(\NC(=O)c2ccccc2)c2nc3ccccc3[nH]2)cc1 | 56.8 µM | > 100 µM | > 100 µM | – | > 100 µM | > 100 µM | > 100 µM | > 100 µM | – | – | – | – | – | – | – | – |
| NC1CCCCC1N.O=C1C=C/C(=C(/c2ccc(O)c(Br)c2)c2ccccc2S(=O)(=O)[O-])C=C1Br.O=C1C=C/C(=C(/c2ccc(O)c(Br)c2)c2ccccc2S(=O)(=O)[O-])C=C1Br.[Pt+4] | > 100 µM | > 100 µM | > 100 µM | > 100 µM | > 100 µM | > 100 µM | > 100 µM | 40.6 µM | 2.42 µM | 7.77 µM | 3.18 µM | 32.6 µM | 9.45 µM | 1.43 µM | 5.21 µM | 1.64 µM |
| N#CCC(=O)N/N=C1/C(=O)N(c2cc(Cl)ccc2Cl)C(=O)C(=O)C1c1nc2ccccc2s1 (stereo unspecified) | > 100 µM | > 100 µM | > 100 µM | > 100 µM | > 100 µM | > 100 µM | 93.2 µM | > 100 µM | – | – | – | – | – | – | – | – |
| NS(=O)(=O)c1ccc(NC(=O)Cc2nc3ccccc3s2)cc1 | 45.7 µM | 33.5 µM | 29.4 µM | – | 30.8 µM | 28.5 µM | 29.4 µM | 34 µM | – | – | – | – | – | – | – | – |
| O=C(N/C(=C\c1cccc([N+](=O)[O-])c1)c1nc2ccccc2[nH]1)c1ccccc1 | – | > 100 µM | > 100 µM | – | > 100 µM | > 100 µM | > 100 µM | > 100 µM | – | – | – | – | – | – | – | – |
| COC(=O)c1ncc2c(=O)[nH]c3ccccc3c2c1C(=O)OC | > 100 µM | > 100 µM | > 100 µM | > 100 µM | > 100 µM | – | > 100 µM | – | – | – | – | – | – | – | – | – |
| CC(C)(C)C(=O)Nc1cccc2oc(-c3ccccc3)cc12 | > 100 µM | > 100 µM | > 100 µM | – | > 100 µM | > 100 µM | > 100 µM | > 100 µM | – | – | – | – | – | – | – | – |
| Cc1[nH]c2ccccc2c1CC/C(=N\Nc1ccccc1)c1ccccc1 | > 100 µM | > 100 µM | > 100 µM | – | > 100 µM | > 100 µM | > 100 µM | – | – | – | – | – | – | – | – | – |
